# Reference: patent publication US20240270821A1, “GIP/GLP1/GCG TRI-RECEPTOR AGONISTS AND USES THEREOF” (priority 2023, published 2024)
# Read-outs that look alike come from different tables or passages of the source. Marks after values point to notes of the source that are not given here. Starred links: 1 amine or outer side, 2 acyl side, 3 side chain; linkers in the order of their positions; H or OH if unused. Non-standard residues stand in square brackets, D forms with d. Groups on a side chain read outwards from the residue. *: point of attachment. C20 diacid = O=C(O)CCCCCCCCCCCCCCCCCCC(=O)*; αMePhe(2-F) = C[C@](N)(Cc1ccccc1F)C(=O)O; γGlu = O=C(O)[C@H](CCC(=O)[*:2])N[*:1]; NMeY = CN[C@@H](Cc1ccc(O)cc1)C(=O)O; αMeF = C[C@](N)(Cc1ccccc1)C(=O)O; αMeL = CC(C)C[C@](C)(N)C(=O)O; AEEA = NCCOCCOCC(=O)O; Aib = CC(C)(N)C(=O)O
# Assays:
# [1] = Body weight in diet-induced obese C57BL/6 mice; assay type: in vivo; conditions: percent of starting weight, DIO mice, mean ± SEM n=5
# Experimental: To investigate the effect of the polypeptides as described herein on weight loss, exemplary polypeptides are dosed to C57BL/6 diet-induced obese (DIO) mice. Specifically, DIO male C57BL/6 mice (Taconic, Germantown, NY) maintained on a calorie-rich diet are used in the following studies. Mice are individually housed in a temperature-controlled (24° C.) facility with 12-hour light/dark cycle (lights on 22:00) and free access to food (TD95217) and water. After a minimum of 2 weeks acclimation to the facility, the mice are randomized according to their body weight, so each experimental group of animals would have similar starting body weight. The body weights range from 41 to 50 g. All groups contain 5 mice. […] Treatments are administered by subcutaneous (SC) injection (10 mL/kg) to ad libitum fed DIO mice 30 to 90 minutes prior to the onset of the dark cycle either once daily (QD) or once every 3 days (Q3D) for 9-16 days. Body weight and food intake are measured daily throughout the study. Body weight is presented as percent of the starting weight. […] Data are presented as mean±SEM of 5 animals per group in Table 7 below. Statistical analysis is performed using repeated measures ANOVA, followed by Dunnett's method comparison test.
# hGIPR [2] = target: T1, hGIPR (Homo sapiens, UniProt P48546); experiment: Functional cAMP activity in the presence of 1% HSA; assay type: cell-based; conditions: read-out: cAMP Rel EC50, hGIPR
# T1 sequence (P48546 22-466): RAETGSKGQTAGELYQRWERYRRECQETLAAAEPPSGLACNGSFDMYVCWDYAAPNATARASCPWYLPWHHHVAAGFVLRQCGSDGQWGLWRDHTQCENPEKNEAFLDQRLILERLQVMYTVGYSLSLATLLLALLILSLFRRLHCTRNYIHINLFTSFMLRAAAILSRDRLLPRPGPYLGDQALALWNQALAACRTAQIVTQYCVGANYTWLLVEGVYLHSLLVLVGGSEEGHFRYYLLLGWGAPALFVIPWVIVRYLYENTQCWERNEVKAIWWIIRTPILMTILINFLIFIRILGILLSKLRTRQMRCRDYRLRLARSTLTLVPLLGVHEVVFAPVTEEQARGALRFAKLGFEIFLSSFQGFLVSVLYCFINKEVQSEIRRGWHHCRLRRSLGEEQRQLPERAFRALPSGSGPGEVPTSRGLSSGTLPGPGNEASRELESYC
# hGLP-1R [3] = target: T2, hGLP-1R (Homo sapiens, UniProt P43220); experiment: Functional cAMP activity in the presence of 1% HSA; assay type: cell-based; conditions: read-out: cAMP Rel EC50, hGLP-1R
# Target sequence in this assay (P43220 24-463): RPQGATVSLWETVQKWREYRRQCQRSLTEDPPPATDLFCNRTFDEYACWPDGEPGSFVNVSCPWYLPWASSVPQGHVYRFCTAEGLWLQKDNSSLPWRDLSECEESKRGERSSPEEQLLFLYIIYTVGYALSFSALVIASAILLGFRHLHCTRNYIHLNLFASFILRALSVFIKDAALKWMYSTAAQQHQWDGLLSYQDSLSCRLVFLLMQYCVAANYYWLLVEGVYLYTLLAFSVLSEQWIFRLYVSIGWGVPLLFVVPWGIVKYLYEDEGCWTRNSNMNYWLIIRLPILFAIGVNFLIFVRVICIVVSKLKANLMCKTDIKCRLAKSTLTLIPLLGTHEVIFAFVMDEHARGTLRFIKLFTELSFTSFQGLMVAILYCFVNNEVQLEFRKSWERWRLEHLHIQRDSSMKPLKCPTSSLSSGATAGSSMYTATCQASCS
# human GcgR = human GcgR (Homo sapiens, UniProt P47871); experiment: Functional cAMP activity in the presence of 1% HSA; assay type: cell-based; conditions: read-out: cAMP Rel EC50, hGcgR
# human GcgR, sequence (P47871 26-477): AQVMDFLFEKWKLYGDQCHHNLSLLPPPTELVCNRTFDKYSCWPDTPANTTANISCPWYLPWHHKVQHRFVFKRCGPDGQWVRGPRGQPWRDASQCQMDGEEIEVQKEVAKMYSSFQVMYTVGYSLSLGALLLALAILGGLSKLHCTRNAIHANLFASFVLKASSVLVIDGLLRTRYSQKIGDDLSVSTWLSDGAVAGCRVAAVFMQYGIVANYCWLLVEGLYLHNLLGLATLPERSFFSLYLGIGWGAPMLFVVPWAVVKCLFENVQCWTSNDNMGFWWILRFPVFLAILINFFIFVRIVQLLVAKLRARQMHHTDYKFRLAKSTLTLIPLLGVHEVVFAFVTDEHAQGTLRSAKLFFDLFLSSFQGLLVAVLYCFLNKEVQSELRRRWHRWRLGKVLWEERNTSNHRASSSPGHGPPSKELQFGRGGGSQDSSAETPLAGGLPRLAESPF
# hGIPR [4] = target: T1, hGIPR; experiment: Functional cAMP activation in the presence of 0.1% casein (no HSA); assay type: cell-based; conditions: read-out: Relative cAMP EC50, hGIPR;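 on Relative cAMP EC50, hGIPR: intracellular cAMP rise after 30 min at 37 °C read by HTRF against a standard curve, scaled between buffer alone (0%) and top control ligand concentration (100%), four-parameter fit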;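 on Relative cAMP EC50, hGLP-1R: intracellular cAMP rise after 30 min at 37 °C read by HTRF, normalized between buffer only (0%) and maximal control ligand (100%), four-parameter variable-slope fit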;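 on Relative cAMP EC50, hGcgR: intracellular cAMP rise after 30 min at 37 °C, read by HTRF against a cAMP standard curve, scaled from buffer only (0%) to maximal control ligand response (100%)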
# hGLP-1R [5] = target: T2, hGLP-1R; experiment: as above; assay type: cell-based; conditions: read-out: Relative cAMP EC50, hGLP-1R
# Target sequence in this assay (P43220 24-463): as the sequence (P43220 24-463) above
# hGcgR = hGcgR (Homo sapiens, UniProt P47871); experiment: as above; assay type: cell-based; conditions: read-out: Relative cAMP EC50, hGcgR;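 further: intracellular cAMP rise after 30 min at 37 °C, read by HTRF against a cAMP standard curve, scaled from buffer only (0%) to maximal control ligand response (100%)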
# hGcgR, sequence (P47871 26-477): as the sequence (P47871 26-477) above
# hGLP-1R [6] = target: T2, hGLP-1R; experiment: GLP-1R CHO cell β-arrestin recruitment assay; assay type: cell-based; set-up: host or cells: CHO-K1 (PathHunter, assay-ready frozen cells); conditions: for EC50: CHO-K1 PathHunter, β-arrestin-2, 0.1% casein, read-out: hGLP1R β-arrestin Rel EC50; for % Stimulation Max: normalized to GLP-1(7-36) as maximum control;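 on all read-outs here: luminescence read after 90 min peptide exposure at 37 °C and a further 60 min with detection reagent at room temperature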
# Target sequence in this assay (P43220 24-463): as the sequence (P43220 24-463) above
# Target sequence in this assay (P32121 whole entry partner): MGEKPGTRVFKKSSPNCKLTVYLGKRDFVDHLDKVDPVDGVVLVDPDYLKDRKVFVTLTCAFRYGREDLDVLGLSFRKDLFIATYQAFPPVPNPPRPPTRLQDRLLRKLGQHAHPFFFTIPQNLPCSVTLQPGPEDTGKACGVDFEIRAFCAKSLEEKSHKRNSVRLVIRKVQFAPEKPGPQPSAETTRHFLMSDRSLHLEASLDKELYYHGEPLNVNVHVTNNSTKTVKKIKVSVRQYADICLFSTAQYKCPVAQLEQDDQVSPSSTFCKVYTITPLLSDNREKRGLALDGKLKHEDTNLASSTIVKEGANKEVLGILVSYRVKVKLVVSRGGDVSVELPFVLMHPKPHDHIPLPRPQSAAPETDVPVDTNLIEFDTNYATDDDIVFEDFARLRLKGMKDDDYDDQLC
# human GLP1-R = human GLP1-R (Homo sapiens, UniProt P43220); experiment: GLP1-R internalization assay in HEK293 cells; assay type: cell-based; conditions: for EC50: HEK293 cells expressing SNAP-GLP-1R, read-out: GLP1R Internalization EC50; for Internalization % TOP: normalized to maximum concentration of GLP-1 (100%)
# human GLP1-R, sequence (P43220 24-463): as the sequence (P43220 24-463) above
# [7] = in the presence of 0.1% casein (no HSA), geometric mean
Compound,EC50 (hGIPR [2]) [nM],EC50 (hGLP-1R [3]) [nM],EC50 (human GcgR) [nM],EC50 (hGIPR [4]; [7]) [nM],EC50 (hGLP-1R [5]; [7]) [nM],EC50 (hGcgR; [7]) [nM],EC50 (hGLP-1R [6]) [nM],% Stimulation Max (hGLP-1R [6]) [%],EC50 (hGIPR [4]) [nM],EC50 (hGLP-1R [5]) [nM],EC50 (hGcgR) [nM],EC50 (human GLP1-R) [nM],Internalization % TOP (human GLP1-R) [%],"Body weight (%) ([1]; 10 nmol/kg SC Q3D, 14 days)","Body weight (%) ([1]; 10 nmol/kg SC QD, 15 days)"
H-Y[Aib]QGTFTSDFSK[αMeL]LDKK([AEEA-γGlu-C20 diacid])AQ[Aib]AFIEYLLAGAPSSGEPPPSEG-NH2 [Example 24],,,,,,,,,,,,,,86.10 +/− 1.98**** %,
H-Y[Aib]QGT[αMePhe(2-F)]TSDYSKLLDKIAQK([AEEA-γGlu-C20 diacid])AFIEYLIEGGPSSGEPPPSEG-NH2 [Example 304],48,172,1720,0.127,0.551,2.31,9.21,47.8,,,,,,,
H-Y[Aib]QGT[αMePhe(2-F)]TSDYSKLLDKQAQK([AEEA-γGlu-C20 diacid])QFIEYLIEGGPSSGEPPPSEG-NH2 [Example 309],424,251,3910,0.32,0.808,9.28,6.72,47.2,,,,,,,
CC[C@H](C)[C@H](NC(=O)[C@H](CC(C)C)NC(=O)[C@](C)(Cc1ccc(O)cc1)NC(=O)[C@@H](CCC(=O)O)NC(=O)[C@@H](NC(=O)[C@H](Cc1ccccc1)NC(=O)[C@H](CC(N)=O)NC(=O)C(C)(C)NC(=O)[C@H](CCC(N)=O)NC(=O)[C@H](C)NC(=O)[C@H](CCCCNC(=O)CC[C@H](NC(=O)CC[C@H](NC(=O)CCCCCCCCCCCCCCCCC(=O)O)C(=O)O)C(=O)O)NC(=O)[C@H](CCCN)NC(=O)[C@H](CC(=O)O)NC(=O)[C@H](CC(C)C)NC(=O)[C@](C)(CC(C)C)NC(=O)[C@@H](NC(=O)[C@](C)(CO)NC(=O)[C@H](Cc1ccncc1)NC(=O)[C@H](CC(=O)O)NC(=O)[C@H](CO)NC(=O)[C@@H](NC(=O)[C@](C)(Cc1ccccc1F)NC(=O)[C@@H](NC(=O)CNC(=O)[C@H](CCC(N)=O)NC(=O)C(C)(C)NC(=O)[C@@H](N)Cc1ccc(O)cc1)[C@@H](C)O)[C@@H](C)O)[C@@H](C)CC)[C@@H](C)CC)C(=O)N[C@@H](CCC(=O)O)C(=O)NCC(=O)NCC(=O)N1CCC[C@H]1C(=O)N[C@@H](CO)C(=O)N[C@@H](CO)C(=O)NCC(=O)N[C@@H](CCC(=O)O)C(=O)N1CCC[C@H]1C(=O)N[C@@H](CCC(=O)O)C(=O)N1CCC[C@H]1C(=O)N[C@@H](CCC(=O)O)C(N)=O [Example 452],0.846,,240,,,,,,0.0118,0.235,2.44,,,,74.13 ± 4.11
H-Y[Aib]QGTFTSDFSK[αMeL]LDKK([AEEA-AEEA-γGlu-C20 diacid])AQ[Aib]AFIEYLLAGGPSSGEPPPSSE-NH2 [Example 5],32.5,675,2670,0.177,2.37,7.4,> 10000,18.4,,,,53.4,75,,
H-Y[Aib]QGTFTSDFSK[αMeL]LDKK([AEEA-γGlu-C20 diacid])AQ[Aib]AFIEYLLAGGPSSGEPPPSSE-NH2 [Example 3],48.1,546,1590,0.217,1.67,3.8,> 10000,16.5,,,,49.2,69.7,,

# Now from value to compound, other results behind:
EC50 (hGIPR [2]) [nM],EC50 (hGLP-1R [3]) [nM],EC50 (human GcgR) [nM],EC50 (hGIPR [4]; [7]) [nM],EC50 (hGLP-1R [5]; [7]) [nM],EC50 (hGcgR; [7]) [nM],EC50 (hGLP-1R [6]) [nM],% Stimulation Max (hGLP-1R [6]) [%],EC50 (hGIPR [4]) [nM],EC50 (hGLP-1R [5]) [nM],EC50 (hGcgR) [nM],EC50 (human GLP1-R) [nM],Internalization % TOP (human GLP1-R) [%],Compound,"Body weight (%) ([1]; 10 nmol/kg SC Q3D, 14 days)","Body weight (%) ([1]; 10 nmol/kg SC QD, 15 days)"
12.9,98,976,0.0975,1.05,6.54,15.7,40.3,,,,,,H-[NMeY][Aib]QGT[αMeF]TSDYSILLDKIAAK([AEEA-AEEA-γGlu-C20 diacid])AFVQWLIAGGPSSGEPPPSEG-NH2 [Example 300],,
91.8,73.6,1370,0.7,0.621,4.47,11.2,56.6,,,,,,H-[NMeY][Aib]QGT[αMeF]TSDYSILLDKQAAK([AEEA-AEEA-γGlu-C20 diacid])AFVQWLIEGGPSSGEPPPSEG-NH2 [Example 302],,
81.8,82.4,1500,0.722,0.641,6.73,13.2,59.1,,,,,,H-[NMeY][Aib]QGT[αMeF]TSDYSILLDKQAAK([AEEA-AEEA-γGlu-C20 diacid])AFVQWLIAGGPSSGEPPPSEG-NH2 [Example 301],,
